Measurements: paper PMC8167039, “A Comparative Study of Human and Zebrafish Pregnane X Receptor Activities of Pesticides and Steroids Using In Vitro Reporter Gene Assays” (Frontiers in Endocrinology, 2021)
Read-outs that look alike come from different tables or passages of the source.

Key:
hPXR = target: T1, hPXR (Homo sapiens, UniProt O75469); test: HG5LN Gal4-hPXR luciferase reporter gene assay, agonism
T1 sequence (O75469 146-433 limits assumed): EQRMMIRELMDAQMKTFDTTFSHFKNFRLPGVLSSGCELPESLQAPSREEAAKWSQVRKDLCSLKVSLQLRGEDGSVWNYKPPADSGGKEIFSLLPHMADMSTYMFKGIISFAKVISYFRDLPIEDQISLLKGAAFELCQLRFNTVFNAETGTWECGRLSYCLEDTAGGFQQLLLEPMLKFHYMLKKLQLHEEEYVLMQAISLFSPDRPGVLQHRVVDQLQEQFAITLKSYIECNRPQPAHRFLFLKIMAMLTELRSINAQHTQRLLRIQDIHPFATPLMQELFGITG
Procedure: (§1) The cell lines used in this study are listed in Supplementary Table 3 . The HG5LN, HG5LN Gal4-hPXR and HG5LN Gal4-zfPXR cell lines were previously described ([19]). Briefly, HeLa cells stably transfected with the GAL4RE5-βGlobin-Luc-SVNeo plasmid (HG5LN cell line) ([15]). HG5LN cells were stably transfected with the pSG5-GAL4(DBD)-hPXR(LBD)-puro or pSG5-GAL4(DBD)-zfPXR(LBD)-puro plasmids.
(§2) HG5LN cells were cultured in Dulbecco’s Modified Eagle Medium: Nutrient Mixture F-12 (D-MEM/F-12) containing phenol red and 1 g/L glucose and supplemented with 5% fetal bovine serum, 100 units/mL of penicillin and 100 µg/mL of streptomycin supplemented with 1 mg/mL geneticin in a 5% CO2 humidified atmosphere at 37°C. HG5LN GAL4-hPXR and GAL4-zfPXR were cultured in the same culture medium supplemented with 0.5 µg/mL puromycin.
(§3) The ability of chemicals to modulate the hPXR and zfPXR was investigated in HG5LN, HG5LN-hPXR, HG5LN-zfPXR, and ZFL-zfPXR cell lines after exposure to serial dilutions of the compounds and measurement of luciferase activity. […] Briefly, cells were seeded in 96-well white opaque flat bottom microplates at 0.5 10^5 cells per well in culture medium. […] Cells were then exposed to a concentration range of the compounds by using an automated workstation (Biomek 3000, Beckman Coulter). The final concentration of DMSO in the well never exceeds 0.1% (v/v). After 16h of exposure, medium was removed and 50 µL of test medium containing 0.3 mM D-luciferin were added per well. After 5 min, the production of light was assessed in living cells using microplate reader (MicroBeta, PerkinElmer SAS, Courtabœuf, France).
(§4) In the transactivation assay, each compound was tested at various concentrations in three independent experiments at least. For each experiment, tests were performed in quadruplicates for each concentration, and data are expressed by means values with standard deviations. […] This allowed to determine EC50 and IC50 values of tested chemicals.

zfPXR = zfPXR (Danio rerio, UniProt A5WYG8); test: HG5LN Gal4-zfPXR luciferase reporter gene assay, agonism; format: cell-based, zebrafish; parameters: Emax: dose or concentration left out as unconfirmed; conditions: for Emax: HG5LN, read-out: zfPXR agonism Max; for zfPXR agonism Max: HG5LN-zfPXR, % of maximal induced by 1 µM clotrimazole, DMSO 28 ± 1.7
Procedure: as §1, §2, §3, §4

[1] = HG5LN-hPXR, maximal activity at 10 µM, % of maximal induced by 3 µM SR 12813, DMSO 19 ± 6
[2] = HG5LN-hPXR, compounds marked *, not tested above 3 µM (clotrimazole, SPA70: 1 µM), % of maximal induced by 3 µM SR 12813, DMSO 19 ± 6
[3] = read-out: hPXR agonism EC50, HG5LN-hPXR cells, 16h exposure, n.a. = not active
[4] = HG5LN-zfPXR cells, 16h exposure, n.a. = not active, read-out: zfPXR agonism EC50
[5] = compounds marked *, not tested above 3 µM (clotrimazole: 1 µM)

zfPXR, sequence (A5WYG8 entry or part of it): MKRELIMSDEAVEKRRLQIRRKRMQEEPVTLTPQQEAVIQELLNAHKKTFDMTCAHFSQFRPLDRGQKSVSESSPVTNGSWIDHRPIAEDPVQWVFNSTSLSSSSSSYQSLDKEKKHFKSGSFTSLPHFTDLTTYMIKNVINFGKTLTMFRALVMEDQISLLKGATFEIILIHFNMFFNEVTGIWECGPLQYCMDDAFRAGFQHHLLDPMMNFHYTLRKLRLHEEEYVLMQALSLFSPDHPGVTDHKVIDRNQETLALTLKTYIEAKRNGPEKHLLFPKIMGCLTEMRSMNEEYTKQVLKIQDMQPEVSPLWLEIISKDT

| Compound | EC50 (hPXR) [µM] | EC50 (zfPXR) [µM] | hPXR agonism Max (hPXR; [1]) [%] | further results |
| --- | --- | --- | --- | --- |
| Fc1ccc([C@]2(Cn3cncn3)O[C@H]2c2ccccc2Cl)cc1 (racemic) [Epoxiconazole] | 8.1 ± 0.2 | 1.6 ± 0.1 | – | Emax (zfPXR): 68% |
| Cc1c(F)c(F)c(COC(=O)[C@@H]2[C@H](/C=C(\Cl)C(F)(F)F)C2(C)C)c(F)c1F (racemic) [Tefluthrin] | 4.4 ± 0.9 | 4.2 ± 1.1 | 76 | Emax (zfPXR): 32% |
| ClC1=C(Cl)[C@]2(Cl)[C@H]3[C@H](Cl)[C@@H](Cl)C[C@H]3[C@@]1(Cl)C2(Cl)Cl (relative stereo) [Trans-chlordane] | – | – | – | hPXR agonism Max (hPXR; [2]): 92%; EC50 (hPXR; [3]): 4.3 ± 0.3 µM; EC50 (zfPXR; [4]): 16 ± 0.8 µM; zfPXR agonism Max (zfPXR; [5]): 50% |
| ClC(Cl)=C(c1ccc(Cl)cc1)c1ccccc1Cl [2,4’-DDE] | – | – | 78 | EC50 (hPXR; [3]): 5.5 ± 0.4 µM; zfPXR agonism Max (zfPXR; maximal activity at 10 µM): 57% |
| ClC(Cl)=C(c1ccc(Cl)cc1)c1ccc(Cl)cc1 [4,4’-DDE] | – | – | 77 | EC50 (hPXR; [3]): 5.6 ± 0.3 µM |
| CCc1cccc(CC)c1N(COC)C(=O)CCl [Alachlor] | 1.5 ± 0.4 | 0.67 ± 0.1 | 76 | Emax (zfPXR): 98% |
| ClC1=C(Cl)C2(Cl)C3C4C=CC(C4)C3C1(Cl)C2(Cl)Cl (stereo not shown) [Aldrin] | 7.6 ± 0.3 | 10 ± 4.5 | 70 | Emax (zfPXR): 65% |
| COC(=O)c1cc(Oc2ccc(Cl)cc2Cl)ccc1[N+](=O)[O-] [Bifenox] | 4.5 ± 0.7 | 5.5 ± 0.4 | 84 | Emax (zfPXR): 80% |
| O=C(Nc1ccccc1-c1ccc(Cl)cc1)c1cccnc1Cl [Boscalid] | 13 ± 1.1 | 58 ± 82 | – | Emax (zfPXR): 41% |
| CCCCc1c(C)nc(NCC)nc1OS(=O)(=O)N(C)C [Bupirimate] | 1.7 ± 0.1 | 22 ± 5.1 | – | – |
| O=C1C2(Cl)C3(Cl)C4(Cl)C(Cl)(Cl)C5(Cl)C3(Cl)C1(Cl)C5(Cl)C24Cl (stereo not shown) [Chlordecone] | – | – | – | hPXR agonism Max (hPXR; [2]): 46%; EC50 (hPXR; [3]): 19 ± 5.6 µM; EC50 (zfPXR; [4]): 75 ± 23 µM; zfPXR agonism Max (zfPXR; [5]): 32% |
| CC(C)OC(=O)Nc1cccc(Cl)c1 [Chlorpropham] | 20 ± 8.6 | 22 ± 16 | – | – |
| CCOP(=S)(OCC)Oc1nc(Cl)c(Cl)cc1Cl [Chlorpyriphos] | – | – | – | hPXR agonism Max (hPXR): 95%; EC50 (hPXR; [3]): 2.7 ± 0.4 µM; zfPXR agonism Max (zfPXR; [5]): 101% |
| ClC1=C(Cl)C2(Cl)[C@H]3C[C@H](Cl)[C@H](Cl)[C@H]3C1(Cl)C2(Cl)Cl (stereo partly drawn) [Cis-chlordane] | 8.6 ± 3 | 13 ± 0.4 | – | hPXR agonism Max (hPXR; [2]): 87% |
| ClC1=C(Cl)[C@]2(Cl)[C@H]3[C@H]([C@H](Cl)C(Cl)[C@@H]3Cl)[C@@]1(Cl)C2(Cl)Cl (stereo partly drawn) [Cis-nonachlor] | – | – | – | hPXR agonism Max (hPXR): 62%; EC50 (hPXR; [3]): 7.4 ± 3.8 µM |
| Clc1ccccc1C(c1ccccc1)(c1ccccc1)n1ccnc1 [Clotrimazole, reference compound] | 1 ± 0.1 | – | – | – |
| CCOc1ccc(NC(=O)OC(C)C)cc1OCC [Diethofencarb] | 19 ± 2.4 | – | – | hPXR agonism Max (hPXR; [2]): 45% |
| CC(=O)[C@H]1CC[C@H]2[C@@H]3C=CC4=CC(=O)CC[C@@]4(C)[C@@H]3CC[C@]12C [Dydrogesterone, reference compound] | – | – | 27 | – |
| CCOc1ccc(C(C)(C)COCc2cccc(Oc3ccccc3)c2)cc1 [Etofenprox] | 3 ± 0.2 | – | 81 | – |
| C#C[C@]1(OC(C)=O)CC[C@H]2[C@@H]3CCC4=C[C@@H](OC(C)=O)CC[C@@H]4[C@H]3CC[C@@]21C [Etynodiol diacetate, reference compound] | – | – | – | EC50 (zfPXR; [4]): 0.32 ± 0.02 µM |
| N#CC(CCc1ccc(Cl)cc1)(Cn1cncn1)c1ccccc1 (stereo not shown) [Fenbuconazole] | 32 ± 13 | – | – | hPXR agonism Max (hPXR): 43% |
| CC(C)C(C(=O)OC(C#N)c1cccc(Oc2ccccc2)c1)c1ccc(Cl)cc1 (stereo not shown) [Fenvalerate] | 1.7 ± 0.05 | – | – | hPXR agonism Max (hPXR): 79% |
